Data reported in patent US9204653B2, “5-fluoro pyrimidine derivatives” (DOW AGROSCIENCES LLC, priority 2008, dated 2015).
Where two headings read alike, the source gives them in different places.

Tested on: Mycosphaerella graminicola; Anamorph: Septoria tritici; Bayer Code SEPTTR
Assay: Leaf blotch of wheat, foliar fungicide treatment, one day protectant (1DP) or three day curative (3DC)
Format: in vivo, Septoria tritici on wheat plants (variety Yuma)
Conditions: Zymoseptoria tritici, percent disease control rating
[1] = 24 h, one day protectant (1DP), read-out: SETTTR 1DP 25 ppm
[2] = 24 h, one day protectant (1DP), read-out: SEPTTR 1DP 100 ppm
[3] = 72 h, three day curative (3DC), read-out: SEPTTR 3DC 25 ppm
[4] = 72 h, three day curative (3DC), read-out: SEPTTR 3DC 100 ppm

Structure (SMILES) | pest or weed control at 25 ppm [1] | pest or weed control at 100 ppm [2] | pest or weed control at 25 ppm [3] | pest or weed control at 100 ppm [4]
Nc1nc(OCc2cccc(Br)c2)ncc1F [Compound 2, 2-(3-Bromobenzyloxy)-5-fluoropyrimidin-4-ylamine] | 76 to 100% | 76 to 100% | 76 to 100% | 76 to 100%
CC(=O)Nc1nc(OCc2cccs2)ncc1F [Compound 6, N-[5-Fluoro-2-(thiophen-2-ylmethoxy)pyrimidin-4-yl]acetamide] | 76 to 100% | 76 to 100% | 76 to 100% | 76 to 100%
CC[Si](CC)(CC)Nc1nc(OCc2ccc(F)cc2)ncc1F [Compound 8, [5-Fluoro-2-(4-fluorobenzyloxy)pyrimidin-4-yl]triethylsilanylamine] | 76 to 100% | 76 to 100% | 76 to 100% | 76 to 100%
O=C(Nc1nc(OCc2ccc(F)cc2)ncc1F)c1snc(Cl)c1Cl [Compound 12, 3,4-Dichloroisothiazole-5-carboxylic acid [5-fluoro-2-(4-fluorobenzyl-oxy)pyrimidin-4-yl]amide] | 76 to 100% | 76 to 100% | 76 to 100% | 76 to 100%
Cc1ccc(COc2ncc(F)c(NCO)n2)cc1 [Compound 16, [5-Fluoro-2-(4-methylbenzyloxy)pyrimidin-4-ylamino]methanol] | 76 to 100% | 76 to 100% | 76 to 100% | 76 to 100%
OCNc1nc(OCc2ccc(F)cc2)ncc1F [Compound 17] | 76 to 100% | 76 to 100% | 76 to 100% | 76 to 100%
Fc1ccc(COc2ncc(F)c(NCOCc3ccccc3)n2)cc1 [Compound 18, Benzyloxymethyl[5-fluoro-2-(4-fluorobenzyloxy)pyrimidin-4-yl]amine] | 51 to 75% | 76 to 100% | 51 to 75% | 51 to 75%
CC(C)(C)C(=O)OCNc1nc(OCc2ccc(F)cc2)ncc1F [Compound 19, 2,2-Dimethylpropionic acid[5-fluoro-2-(4-fluorobenzyloxy)pyrimidin-4-ylamino]methyl ester] | 76 to 100% | 76 to 100% | 51 to 75% | 76 to 100%
Fc1ccc(COc2ncc(F)c(/N=C/N3CCCC3)n2)cc1 [Compound 21, [5-Fluoro-2-(4-fluorobenzyloxy)pyrimidin-4-yl]-[1-pyrrolidin-1-yl-methylidene]amine] | 76 to 100% | 76 to 100% | 76 to 100% | 76 to 100%
O/N=C\Nc1nc(OCc2ccc(F)cc2)ncc1F [Compound 22, N-[5-Fluoro-2-(4-fluorobenzyloxy)pyrimidin-4-yl]-N′-hydroxy-formamidine] | 76 to 100% | 76 to 100% | 76 to 100% | 76 to 100%
CN(C)/C=N/c1nc(O)ncc1F [Compound 25, N′-(5-Fluoro-2-hydroxy-pyrimidin-4-yl)-N,N-dimethyl-formamidine] | 76 to 100% | 76 to 100% | 76 to 100% | 76 to 100%
CCOC(=O)Oc1ncc(F)c(/N=C/N(C)C)n1 [Compound 26, Carbonic acid 4-(dimethylamino-methyleneamino)-5-fluoropyrimidin-2-yl ester ethyl ester] | 76 to 100% | 76 to 100% | 76 to 100% | 76 to 100%
CN(C)/C=N/c1nc(OC(=O)c2ccccc2)ncc1F [Compound 27, Benzoic acid 4-(dimethylamino-methyleneamino)-5-fluoropyrimidin-2-yl ester] | 76 to 100% | 76 to 100% | 76 to 100% | 76 to 100%
CN(C)/C=N/c1nc(OS(=O)(=O)c2ccccc2)ncc1F [Compound 28, Benzenesulfonic acid 4-(dimethylamino-methyleneamino)-5-fluoro-pyrimidin-2-yl ester] | 76 to 100% | 76 to 100% | 76 to 100% | 76 to 100%
Nc1nc(OS(=O)(=O)c2ccccc2)ncc1F [Compound 29, Benzenesulfonic acid 4-amino-5-fluoropyrimidin-2-yl ester] | 76 to 100% | 76 to 100% | 51 to 75% | 76 to 100%
Fc1ccc(COc2ncc(F)c(NCc3ccccc3F)n2)cc1 [Compound 30, (2-Fluorobenzyl)-[5-fluoro-2-(4-fluorobenzyloxy)pyrimidin-4-yl]amine] | 51 to 75% | 76 to 100% | 51 to 75% | 76 to 100%
COc1ccc(N(N)c2nc(OCc3cccc(OC)c3)ncc2F)cc1 [Compound 31, 5-Fluoro-2-(3-methoxybenzyloxy)-4-(1-(4-methoxyphenyl)-hydrazinyl)pyrimidine] | 0 to 25% | 0 to 25% | 0 to 25% | 0 to 25%
C=CCONc1nc(OCc2cccc(OC)c2)ncc1F [Compound 32, O-Allyl-N-(5-fluoro-2-(3-methoxybenzyloxy)pyrimidin-4-yl)hydroxylamine] | 26 to 50% | 76 to 100% | 0 to 25% | 76 to 100%
N#Cc1cccc(COc2ncc(F)c(N)n2)c1 [Compound 33] | 76 to 100% | 76 to 100% | 76 to 100% | 76 to 100%
N#Cc1cccc(COc2ncc(F)c(NC(=O)NCc3ccccc3F)n2)c1 [Compound 34, 1-[2-(3-Cyanobenzyloxy)-5-fluoropyrimidin-4-yl]-3-(2-fluorobenzyl)urea] | 0 to 25% | 0 to 25% | 0 to 25% | 0 to 25%
CCCNC(=S)Nc1nc(OCc2ccc(F)cc2)ncc1F [Compound 37] | 76 to 100% | 76 to 100% | 76 to 100% | 76 to 100%
Cc1ccc(COc2ncc(F)c(NS(C)(=O)=O)n2)cc1 [Compound 38, N-[5-Fluoro-2-(4-methylbenzyloxy)pyrimidin-4-yl]methanesulfonamide] | 26 to 50% | 26 to 50% | 0 to 25% | 26 to 50%
O=[N+]([O-])c1ccccc1SNc1nc(OCc2ccc(F)cc2)ncc1F [Compound 39, N-[5-Fluoro-2-(4-fluorobenzyloxy)-pyrimidin-4-yl]-S-(2-nitrophenyl)-thiohydroxylamine] | 76 to 100% | 76 to 100% | 0 to 25% | 0 to 25%
